In patent publication US8927717B1, “Thiochromeno[2,3-c]quinolin-12-one derivatives, preparation method and application thereof” (National Defense Medical Center, priority 2014, dated 2015):

Tests used:
CCRF-CEM = format: cell-based; conditions: Leukemia; 10^−5 molar; 48 hours; SRB
HL-60(TB) = format: cell-based; conditions: Leukemia; 10^−5 molar; 48 hours; SRB
K-562 = format: cell-based; conditions: Leukemia; 10^−5 molar; 48 hours; SRB
MOLT-4 = format: cell-based; conditions: Leukemia; 10^−5 molar; 48 hours; SRB
RPMI-8226 = format: cell-based; conditions: Leukemia; 10^−5 molar; 48 hours; SRB
SR = format: cell-based; conditions: Leukemia; 10^−5 molar; 48 hours; SRB
A549/ATCC = format: cell-based; conditions: Non-small cell lung cancer; 10^−5 molar; 48 hours; SRB
HOP-62 = format: cell-based; conditions: Non-small cell lung cancer; 10^−5 molar; 48 hours; SRB
NCI-H226 = format: cell-based; conditions: Non-small cell lung cancer; 10^−5 molar; 48 hours; SRB
NCI-H23 = format: cell-based; conditions: Non-small cell lung cancer; 10^−5 molar; 48 hours; SRB
NCI-H460 = format: cell-based; conditions: Non-small cell lung cancer; 10^−5 molar; 48 hours; SRB
NCI-H522 = format: cell-based; conditions: Non-small cell lung cancer; 10^−5 molar; 48 hours; SRB
COLO 205 = format: cell-based; conditions: Colon cancer; 10^−5 molar; 48 hours; SRB
HCC-2998 = format: cell-based; conditions: Colon cancer; 10^−5 molar; 48 hours; SRB
HCT-116 = format: cell-based; conditions: Colon cancer; 10^−5 molar; 48 hours; SRB
HCT-15 = format: cell-based; conditions: Colon cancer; 10^−5 molar; 48 hours; SRB
HT29 = format: cell-based; conditions: Colon cancer; 10^−5 molar; 48 hours; SRB
KM12 = test: cells; format: cell-based; conditions: Colon cancer; 10^−5 molar; 48 hours; SRB
SW-620 = format: cell-based; conditions: Colon cancer; 10^−5 molar; 48 hours; SRB
SF-268 = format: cell-based; conditions: CNS cancer; 10^−5 molar; 48 hours; SRB
SF-295 = format: cell-based; conditions: CNS cancer; 10^−5 molar; 48 hours; SRB
SF-539 = format: cell-based; conditions: CNS cancer; 10^−5 molar; 48 hours; SRB
SNB-19 = format: cell-based; conditions: CNS cancer; 10^−5 molar; 48 hours; SRB
SNB-75 = format: cell-based; conditions: CNS cancer; 10^−5 molar; 48 hours; SRB
U251 = format: cell-based; conditions: CNS cancer; 10^−5 molar; 48 hours; SRB
LOX IMVI = format: cell-based; conditions: Melanoma; 10^−5 molar; 48 hours; SRB
MALME-3M = format: cell-based; conditions: Melanoma; 10^−5 molar; 48 hours; SRB
M14 = format: cell-based; conditions: Melanoma; 10^−5 molar; 48 hours; SRB
MDA-MB-435 = format: cell-based; conditions: Melanoma; 10^−5 molar; 48 hours; SRB
SK-MEL-28 = format: cell-based; conditions: Melanoma; 10^−5 molar; 48 hours; SRB
SK-MEL-5 = format: cell-based; conditions: Melanoma; 10^−5 molar; 48 hours; SRB
UACC-257 = format: cell-based; conditions: Melanoma; 10^−5 molar; 48 hours; SRB
UACC-62 = format: cell-based; conditions: Melanoma; 10^−5 molar; 48 hours; SRB
IGROV1 = format: cell-based; conditions: Ovarian cancer; 10^−5 molar; 48 hours; SRB
OVCAR-3 = format: cell-based; conditions: Ovarian cancer; 10^−5 molar; 48 hours; SRB
OVCAR-4 = format: cell-based; conditions: Ovarian cancer; 10^−5 molar; 48 hours; SRB
OVCAR-5 = format: cell-based; conditions: Ovarian cancer; 10^−5 molar; 48 hours; SRB
OVCAR-8 = format: cell-based; conditions: Ovarian cancer; 10^−5 molar; 48 hours; SRB
NCI/ADR-RES = format: cell-based; conditions: Ovarian cancer; 10^−5 molar; 48 hours; SRB
SK-OV-3 = format: cell-based; conditions: Ovarian cancer; 10^−5 molar; 48 hours; SRB
786-0 = format: cell-based; conditions: Renal cancer; 10^−5 molar; 48 hours; SRB
A498 = format: cell-based; conditions: Renal cancer; 10^−5 molar; 48 hours; SRB
ACHN = format: cell-based; conditions: Renal cancer; 10^−5 molar; 48 hours; SRB
CAKI-1 = format: cell-based; conditions: Renal cancer; 10^−5 molar; 48 hours; SRB
RXF 393 = format: cell-based; conditions: Renal cancer; 10^−5 molar; 48 hours; SRB
SN12C = format: cell-based; conditions: Renal cancer; 10^−5 molar; 48 hours; SRB
TK-10 = format: cell-based; conditions: Renal cancer; 10^−5 molar; 48 hours; SRB
UO-31 = format: cell-based; conditions: Renal cancer; 10^−5 molar; 48 hours; SRB
PC-3 = format: cell-based; conditions: Prostate cancer; 10^−5 molar; 48 hours; SRB
DU-145 = format: cell-based; conditions: Prostate cancer; 10^−5 molar; 48 hours; SRB
MCF7 = format: cell-based; conditions: Breast cancer; 10^−5 molar; 48 hours; SRB
MDA-MB-231/ATCC = format: cell-based; conditions: Breast cancer; 10^−5 molar; 48 hours; SRB
HS 578T = format: cell-based; conditions: Breast cancer; 10^−5 molar; 48 hours; SRB
BT-549 = format: cell-based; conditions: Breast cancer; 10^−5 molar; 48 hours; SRB
T-47D = format: cell-based; conditions: Breast cancer; 10^−5 molar; 48 hours; SRB
MDA-MB-486 = format: cell-based; conditions: Breast cancer; 10^−5 molar; 48 hours; SRB
60 cancer cell lines = test: NCI 60-cell screen, SRB, whole panel (mean, delta, range); format: cell-based; conditions: 10^−5 molar, 48 hours, SRB

Compound: CCC(CO)Nc1nc2ccccc2c2c(=O)c3cc(Cl)ccc3sc12 (stereo not drawn) [Compound N12, 10-Chloro-6-((1-hydroxybutan-2-yl)amino)-12H-thiochromeno[2,3-c]quinolin-12-one]
- Growth percent CCRF-CEM (CCRF-CEM): 70.00%
- Growth percent HL-60(TB) (HL-60(TB)): 96.29%
- Growth percent K-562 (K-562): 46.86%
- Growth percent MOLT-4 (MOLT-4): 61.79%
- Growth percent RPMI-8226 (RPMI-8226): 73.50%
- Growth percent SR (SR): 62.38%
- Growth percent A549/ATCC (A549/ATCC): 69.86%
- Growth percent HOP-62 (HOP-62): 55.91%
- Growth percent NCI-H226 (NCI-H226): 77.56%
- Growth percent NCI-H23 (NCI-H23): 81.25%
- Growth percent NCI-H460 (NCI-H460): 83.78%
- Growth percent NCI-H522 (NCI-H522): 64.07%
- Growth percent COLO 205 (COLO 205): 68.37%
- Growth percent HCC-2998 (HCC-2998): 99.61%
- Growth percent HCT-116 (HCT-116): 73.42%
- Growth percent HCT-15 (HCT-15): 77.58%
- Growth percent HT29 (HT29): 78.24%
- Growth percent KM12 (KM12): 82.37%
- Growth percent SW-620 (SW-620): 84.32%
- Growth percent SF-268 (SF-268): 76.71%
- Growth percent SF-295 (SF-295): 89.58%
- Growth percent SF-539 (SF-539): 83.86%
- Growth percent SNB-19 (SNB-19): 93.87%
- Growth percent SNB-75 (SNB-75): 31.01%
- Growth percent U251 (U251): 74.49%
- Growth percent LOX IMVI (LOX IMVI): 79.25%
- Growth percent MALME-3M (MALME-3M): 58.66%
- Growth percent M14 (M14): 85.38%
- Growth percent MDA-MB-435 (MDA-MB-435): 92.11%
- Growth percent SK-MEL-28 (SK-MEL-28): 82.86%
- Growth percent SK-MEL-5 (SK-MEL-5): 87.19%
- Growth percent UACC-257 (UACC-257): 95.71%
- Growth percent UACC-62 (UACC-62): 76.17%
- Growth percent IGROV1 (IGROV1): 66.54%
- Growth percent OVCAR-3 (OVCAR-3): 96.34%
- Growth percent OVCAR-4 (OVCAR-4): 83.23%
- Growth percent OVCAR-5 (OVCAR-5): 88.01%
- Growth percent OVCAR-8 (OVCAR-8): 68.74%
- Growth percent NCI/ADR-RES (NCI/ADR-RES): 77.02%
- Growth percent SK-OV-3 (SK-OV-3): 58.93%
- Growth percent 786-0 (786-0): 82.86%
- Growth percent A498 (A498): 74.62%
- Growth percent ACHN (ACHN): 69.12%
- Growth percent CAKI-1 (CAKI-1): 59.29%
- Growth percent RXF 393 (RXF 393): 71.61%
- Growth percent SN12C (SN12C): 81.98%
- Growth percent TK-10 (TK-10): 77.45%
- Growth percent UO-31 (UO-31): 51.01%
- Growth percent PC-3 (PC-3): 58.35%
- Growth percent DU-145 (DU-145): 87.04%
- Growth percent MCF7 (Table 2: MCF) (MCF7): 40.92%
- Growth percent MDA-MB-231/ATCC (MDA-MB-231/ATCC): 58.29%
- Growth percent HS 578T (HS 578T): 52.66%
- Growth percent BT-549 (BT-549): 85.96%
- Growth percent T-47D (T-47D): 46.94%
- Growth percent MDA-MB-486 (MDA-MB-486): 80.85%
- Growth percent, Delta (60 cancer cell lines; delta over the cell panel): 42.51%
- Growth percent, Mean (60 cancer cell lines; mean over the cell panel): 73.52%
- Growth percent, Range (60 cancer cell lines; range over the cell panel): 68.60%
- melting point: 203 to 204 °C
